In US20100184683A1, “ANTIBACTERIAL AND ANTIFUNGAL PEPTIDES” (C3 JIAN, INC., priority 2009, published 2010):
Converted amounts (≈) assume the structure as drawn. Peptide text beside a SMILES is read from it.

These molecules were tested on B. subtilis (assay: not given). Details: not given.
Format: cell-based, Bacillus subtilis
Description: (§1) In certain embodiments the MIC assays are performed as described herein in the Examples. For each organism, the media and growth conditions utilized is detailed in Table 8.
(§2) In certain embodiments the MIC assays are performed as follows: For each organism, the media and growth conditions utilized is detailed in Table 8.

| Molecule | MIC [µM] |
| --- | --- |
| CC[C@H](C)[C@H](NC(=O)[C@H](CCCNC(=N)N)NC(=O)[C@H](CCCCN)NC(=O)[C@H](CCCCN)NC(=O)[C@H](CCSC)NC(=O)[C@H](CO)NC(=O)[C@H](CC(C)C)NC(=O)[C@H](CC(C)C)NC(=O)[C@H](CCCCN)NC(=O)[C@H](CCCNC(=N)N)NC(=O)[C@@H](NC(=O)[C@@H](NC(=O)[C@@H](NC(=O)[C@H](CC(C)C)NC(=O)[C@@H](NC(=O)[C@H](Cc1ccc(O)cc1)NC(=O)[C@H](CC(C)C)NC(=O)[C@H](Cc1ccccc1)NC(=O)[C@H](CO)NC(=O)[C@H](Cc1ccc(O)cc1)NC(=O)[C@@H](N)C(C)C)C(C)C)C(C)C)[C@@H](C)CC)C(C)C)C(=O)N[C@@H](CCC(=O)O)C(=O)N[C@@H](CCCNC(=N)N)C(=O)N[C@@H](CC(C)C)C(=O)O [PF-499] (H-VYSFLYVLVIVRKLLSMKKRIERL-OH; N-terminus and C-terminus assumed) | 50 (≈ 148 µg/mL) |
| CC[C@H](C)[C@H](NC(=O)[C@H](Cc1ccccc1)NC(=O)[C@@H](NC(=O)[C@H](Cc1ccccc1)NC(=O)[C@H](CC(C)C)NC(=O)[C@H](CC(=O)O)NC(=O)[C@@H](NC(=O)[C@H](CS)NC(=O)[C@@H](NC(=O)[C@H](CCCNC(=N)N)NC(=O)[C@H](CC(C)C)NC(=O)[C@@H](NC(=O)[C@@H](N)CC(C)C)C(C)C)[C@@H](C)CC)[C@@H](C)O)[C@@H](C)O)C(=O)N[C@@H](CCCCN)C(=O)N[C@@H](Cc1c[nH]c2ccccc12)C(=O)N[C@H](C(=O)N[C@H](C(=O)N[C@@H](CCCCN)C(=O)N[C@@H](CCC(N)=O)C(=O)N[C@@H](CCCNC(=N)N)C(=O)N[C@@H](CCCCN)C(=O)N[C@@H](CO)C(=O)O)[C@@H](C)CC)[C@@H](C)O [PF-497] (H-LVLRICTDLFTFIKWTIKQRKS-OH; N-terminus and C-terminus assumed) | 50 (≈ 136 µg/mL) |
| CC[C@H](C)[C@H](NC(=O)CN)C(=O)N[C@H](C(=O)N[C@@H](CC(C)C)C(=O)N[C@H](C(=O)NCC(=O)N[C@@H](CC(C)C)C(=O)N[C@@H](CCCCN)C(=O)N[C@@H](CC(C)C)C(=O)N[C@H](C(=O)N1CCC[C@H]1C(=O)N[C@@H](CC(C)C)C(=O)N[C@@H](CC(C)C)C(=O)N[C@@H](C)C(=O)N[C@@H](CC(N)=O)C(=O)N[C@H](C(=O)N[C@@H](CC(C)C)C(=O)N[C@@H](CCCNC(=N)N)C(=O)O)C(C)C)[C@@H](C)CC)[C@@H](C)CC)C(C)C [PF-322] (H-GIVLIGLKLIPLLANVLR-OH; N-terminus and C-terminus assumed) | 50 (≈ 95.8 µg/mL) |

The molecules below were run on S. pneumoniae (assay: not given). Details: not given.
Format: cell-based, Streptococcus pneumoniae
Description: as §1, §2

| Molecule | MIC [µM] |
| --- | --- |
| CC[C@H](C)[C@H](NC(=O)[C@H](CCCNC(=N)N)NC(=O)[C@H](CO)NC(=O)[C@H](CC(C)C)NC(=O)[C@H](C)NC(=O)[C@H](C)NC(=O)[C@H](CC(C)C)NC(=O)[C@@H](NC(=O)[C@@H]1CCCN1C(=O)[C@H](CCCCN)NC(=O)[C@H](Cc1c[nH]cn1)NC(=O)[C@H](Cc1ccc(O)cc1)NC(=O)[C@H](CS)NC(=O)[C@@H](NC(=O)[C@H](CCCNC(=N)N)NC(=O)[C@@H]1CCCN1C(=O)[C@H](C)NC(=O)[C@H](CC(=O)O)NC(=O)[C@@H]1CCCN1)[C@@H](C)O)[C@@H](C)CC)C(=O)N[C@H](C(=O)N[C@H](C(=O)N[C@H](C(=O)N[C@@H](CC(=O)O)C(=O)N[C@@H](CCCNC(=N)N)C(=O)O)[C@@H](C)O)C(C)C)C(C)C [PF-524] (H-PDAPRTCYHKPILAALSRIVVTDR-OH; N-terminus and C-terminus assumed) | 50 (≈ 135 µg/mL) |
| CC[C@H](C)[C@H](NC(=O)[C@@H](NC(=O)[C@@H](NC(=O)[C@@H]1CCCN1C(=O)[C@@H](NC(=O)[C@H](CCC(=O)O)NC(=O)[C@H](CC(=O)O)NC(=O)[C@H](CC(=O)O)NC(=O)[C@H](CC(=O)O)NC(=O)[C@H](CCC(N)=O)NC(=O)[C@H](Cc1ccccc1)NC(=O)[C@H](CC(=O)O)NC(=O)[C@H](CCC(=O)O)NC(=O)[C@@H](NC(=O)[C@H](CCC(=O)O)NC(=O)[C@H](CCC(=O)O)NC(=O)CNC(=O)[C@@H](NC(=O)[C@H](Cc1ccccc1)NC(=O)[C@@H]1CCCN1C(=O)[C@H](CCCCN)NC(=O)[C@H](CCC(N)=O)NC(=O)[C@@H](N)Cc1ccccc1)[C@@H](C)O)C(C)C)[C@@H](C)CC)[C@@H](C)O)[C@@H](C)CC)C(=O)O [PF-437] (H-FQKPFTGEEVEDFQDDDEIPTII-OH; N-terminus and C-terminus assumed) | 50 (≈ 136 µg/mL) |
| CC(C)C[C@H](NC(=O)[C@H](CC(C)C)NC(=O)[C@H](Cc1c[nH]cn1)NC(=O)[C@H](CC(N)=O)NC(=O)[C@H](CCCCN)NC(=O)[C@H](CC(C)C)NC(=O)[C@H](CO)NC(=O)[C@H](CCCNC(=N)N)NC(=O)[C@H](CO)NC(=O)[C@H](C)NC(=O)[C@H](CCC(N)=O)NC(=O)[C@H](CCCCN)NC(=O)[C@H](CO)NC(=O)[C@H](C)NC(=O)[C@H](CCC(N)=O)NC(=O)[C@H](CCCCN)NC(=O)[C@H](CO)NC(=O)[C@H](C)NC(=O)[C@H](CCC(N)=O)NC(=O)[C@H](CCCCN)NC(=O)[C@H](CO)NC(=O)[C@H](C)NC(=O)[C@H](CCC(N)=O)NC(=O)[C@H](CCCCN)NC(=O)[C@H](CO)NC(=O)[C@H](C)NC(=O)[C@H](CCC(N)=O)NC(=O)[C@H](CCCCN)NC(=O)[C@H](CO)NC(=O)[C@H](C)N)C(=O)O [PF-523] (H-ASKQASKQASKQASKQASKQASRSLKNHLL-OH; N-terminus and C-terminus assumed) | 50 (≈ 161 µg/mL) |
| CC(C)C[C@H](NC(=O)[C@H](CCCCN)NC(=O)CNC(=O)[C@@H](N)CS)C(=O)N[C@@H](CC(C)C)C(=O)N[C@@H](CCC(=O)O)C(=O)N[C@@H](CCC(N)=O)C(=O)N[C@@H](CCCCN)C(=O)N[C@@H](CC(N)=O)C(=O)N[C@@H](Cc1ccccc1)C(=O)N[C@@H](Cc1ccccc1)C(=O)N[C@@H](CC(C)C)C(=O)N[C@@H](CCCCN)C(=O)N[C@H](C(=O)N[C@@H](CCCNC(=N)N)C(=O)O)[C@@H](C)O [PF-521] (H-CGKLLEQKNFFLKTR-OH; N-terminus and C-terminus assumed) | 50 (≈ 91.3 µg/mL) |

Same assay, conditions: S. pneumoniae; TSB supplemented with 5% yeast extract, 37° C., 10% CO2; inoculum 10^6 CFU/ml; 18-24 h or 48 h

| Molecule | MIC [µM] |
| --- | --- |
| LGLTAGVAYAAQPTNQPTNQPTNQPTNQPTNQPTNQPRW [PF-520] | 50 |
| CC[C@H](C)[C@H](NC(=O)[C@H](CC(C)C)NC(=O)[C@@H]1CCCN1C(=O)[C@@H]1CCCN1C(=O)[C@H](CCCCN)NC(=O)[C@@H](NC(=O)[C@H](Cc1ccc(O)cc1)NC(=O)[C@H](CC(C)C)NC(=O)[C@H](CO)NC(=O)[C@H](CCC(N)=O)NC(=O)[C@H](CCSC)NC(=O)[C@@H](N)C(C)C)C(C)C)C(=O)N[C@@H](CC(C)C)C(=O)N[C@H](C(=O)N[C@H](C(=O)N[C@@H](CCCCN)C(=O)N[C@@H](CC(C)C)C(=O)N[C@@H](C)C(=O)N[C@@H](CCC(N)=O)C(=O)N[C@@H](CCC(N)=O)C(=O)N[C@@H](CC(N)=O)C(=O)O)[C@@H](C)O)C(C)C [PF-511] (H-VMQSLYVKPPLILVTKLAQQN-OH; N-terminus and C-terminus assumed) | 50 (≈ 119 µg/mL) |
| CC[C@H](C)[C@H](NC(=O)[C@H](CCC(=O)O)NC(=O)[C@@H]1CCCN1C(=O)[C@H](CCSC)NC(=O)[C@H](Cc1ccccc1)NC(=O)[C@@H](N)CO)C(=O)N[C@@H](CCC(N)=O)C(=O)N[C@@H](CCCCN)C(=O)N[C@@H](CC(N)=O)C(=O)N[C@H](C(=O)N[C@H](C(=O)N1CCC[C@H]1C(=O)N[C@H](C(=O)N[C@@H](CCC(N)=O)C(=O)N[C@@H](CCSC)C(=O)N[C@@H](CCCCN)C(=O)O)[C@@H](C)O)[C@@H](C)CC)[C@@H](C)O [PF-512] (H-SFMPEIQKNTIPTQMK-OH; N-terminus and C-terminus assumed) | 50 (≈ 94.7 µg/mL) |

What follows are molecules tested on Candida albicans (assay: Binding of targeting peptides to Candida albicans). Details: tested at 3.13, 6.25, 12.5 and 25.0 μM in 1× PBS or HEPES/NaCl/MgCl2/0.1% CTAB.
Description: The peptides in Table 6 were tested for binding efficiency at 3.13, 6.25, 12.5 and 25.0 μM concentrations in 1× phosphate-buffered saline or 20 mM HEPES (4-(2-hydroxyethyl)-1-piperazineethanesulfonic acid), 150 mM sodium chloride, 1 mM magnesium chloride and 0.1% CTAB.

| Molecule | Target(s): form of Candida albicans bound |
| --- | --- |
| HSSHL (HARAAVGVAELPRGAAVEVELIAAVRP; Antimicrobial peptide and/or targeting peptide) [PF-060] | hyphae |
| EILNNNQVIKELTMKYKTQFESNLGGWTARARR [PF-580] | hyphae |
| KLRSASKKSLQEKSCGIMPEKPAG [PF-206] | hyphae |
| RLARGRPTNLCGRRG [PF-170] | yeast cells |
| EVYSSPTNNVAITVQNN [PF-178] | hyphae |
| AIEGVIKKGACFKLLRHEMF [PF-167] | yeast cells |
| NILFGIIGFVVAMTAAVIVTAISIAK [PF-543] | hyphae |
| HARAAVGVAELPRGAAVEVELIAAVRP [1T-65] | hyphae |
| LVRLA (NILFGIIGFVVAMTAAVIVTAISIAK; Antimicrobial peptide and/or targeting peptide) [PF-636] | hyphae |
| GGTKEIVYQRG [1T-68] | yeast cells |
| MPKARPVNHNKKKSKITIKSNFTLFYMFNP [PF-634] | hyphae |
| DLRKAK (VVRRFQGM; Antimicrobial peptide and/or targeting peptide) [PF-024] | hyphae |
| VVRRFQGM [PF-141] | hyphae |
| NRQAQGERAHGEQQG [1T-70] | yeast cells |
| SKFELVNYASGCSCGADCKCASETECKCASKK [PF-761] | hyphae |
| MIHLTKQNTMEALHFIKQFYDMFFILNFNV [PF-040] | hyphae |
| RFFNFEIKKSTKVDYVFAHVDLSDV [PF-051] | hyphae |
| RLTSNQFLTRITPFVFAQH [PF-176] | yeast cells |
| GVGIGFIMMGVVGYAVKLVHIPIRYLIV [PF-770] | hyphae |
| VYRHLRFIDGKLVEIRLERK [1T-36] | hyphae |
